Results on 14 compounds are retold here after patent US9233976B2, “Berbamine derivatives” (CITY OF HOPE, priority 2009, dated 2016).

Common to all, as to type: cell-based
For experiment [1], the system named is Imatinib-resistant leukemia (K562/ADR) cells. The experiment is described as follows: Cell viability in imatinib-resistant leukemia cells. As for the experimental part: Imatinib-resistant leukemia (K562/ADR) cells (5,000 cells/well) were treated with different concentrations (0.6-40 μM in DMSO) of BA #1, BA #3 and BA #4 respectively for 48 hours and cell viability was measured.

The test system of experiment [2] is A2058 human melanoma cell line. Put plainly: MTS cell viability assay in A2058 cells. Particulars: A2058, 48 h. The procedure: (§1) IC50 of values of berbamine derivatives were determined in cancer cell lines DU145 and A2058 respectively. DU145 and A2058 cells (5,000 cells/well) were treated with berbamine derivatives in a dose-dependent manner (0.1 to 20 μM in 1% DMSO for 48 h. Then, MTS assay for cell viability were carried out to determine the IC50 values. Four samples were tested for each berbamine derivatives at each concentration in each cell line, and the averaged data were shown in Table 1 and FIGS. 1-8.
On the technique in general: Formazan colour is commonly taken as a measure of viable cells.

For experiment [3], the system named is DU145 prostate cancer cell line. The experiment is described as follows: MTS cell viability assay in DU145 cells. Particulars: DU145, 48 h. The procedure:
as §1

Experiment [4] deals with human erythroleukemia HEL (homozygous JAK2 V617F mutation) cells. Put plainly: MTS cell viability assay in HEL cells. Particulars: HEL Jak2 V617 mutation, 48 h. The procedure:
HEL Jak2 V617 mutation cells (10,000 cells/well) were treated with different concentration (0.1 μM to 20 μM in 1% DMSO of berbamine, BA #3, and BA #10 respectively for 48 h. Then, MTS assay for cell viability were carried out to determine the IC50 values. Four samples were tested for each test compound at each concentration, and the averaged data were shown in Table 3 and FIGS. 10-11.

Experiment [5] has as its system Human normal dermal fibroblast (NHDF) cells. Put plainly: Cell viability in normal dermal fibroblasts.
In the next experiment the test system is cancer cell lines. The experiment is described as follows: IC50 in cancer cell lines tested (summary statement). Particulars: summary over cell lines tested. The source says: For example, berbamine derivatives (e.g. BA #3) show significant (at least 10-fold) improvement in activity over berbamine in cancer cell lines tested (e.g. K562/ADR). Berbamine derivatives (e.g. BA #3) also show inhibition of Jak2/Stat3 signaling in cancer cell lines (e.g. A2058, erythroleukemia HEL cells), and show down-regulation of Mcl-1 and Bcl-xL proteins.

For `COc1cc2c3cc1Oc1c(OC)c(OC)cc4c1[C@@H](Cc1ccc(OCCCNC(=O)c5cncs5)c(c1)Oc1ccc(cc1)C[C@@H]3N(C)CC2)N(C)CC4` [BA #1], the results for the IC50 in experiment [1] (48 hours), in experiment [2] and in experiment [3] were 6.4 µM, 7.4 µM and 9.4 µM, respectively.

In the case of `COc1cc2c3cc1Oc1c(OC)c(OC)cc4c1[C@@H](Cc1ccc(OCCCNC(=O)c5cncs5)c(c1)Oc1ccc(cc1)C[C@@H]3N(C)CC2)N(C)CC4` [BA #2], the IC50 (usually the midpoint of a concentration-inhibition curve) in experiment [2] came to 14.6 µM; in experiment [3], 15.2 µM.

Regarding `COc1cc2c3cc1Oc1c(OC)c(OC)cc4c1[C@@H](Cc1ccc(OCCCNC(=O)c5cncs5)c(c1)Oc1ccc(cc1)C[C@@H]3N(C)CC2)N(C)CC4` [BA #4], the half-maximal inhibitory concentration (IC50) is 3 µM in experiment [1] (48 hours), 14.3 µM in experiment [2] and 15.5 µM in experiment [3].

On to `COc1cc2c3cc1Oc1c(OC)c(OC)cc4c1[C@@H](Cc1ccc(OCCCNC(=O)c5cncs5)c(c1)Oc1ccc(cc1)C[C@@H]3N(C)CC2)N(C)CC4` [BA #5], for which the 50% inhibitory concentration (IC50) is 3.9 µM in experiment [2] and 7.9 µM in experiment [3].

For `COc1cc2c3cc1Oc1c(OC)c(OC)cc4c1[C@@H](Cc1ccc(OCCCNC(=O)c5cncs5)c(c1)Oc1ccc(cc1)C[C@@H]3N(C)CC2)N(C)CC4` [BA #6], the IC50 in experiment [2] was determined as 3.4 µM; in experiment [3] it was 3.5 µM.

For `COc1cc2c3cc1Oc1c(OC)c(OC)cc4c1[C@@H](Cc1ccc(OCCCNC(=O)c5cncs5)c(c1)Oc1ccc(cc1)C[C@@H]3N(C)CC2)N(C)CC4` [BA #7], the IC50 in experiment [2] was 3.5 µM; in experiment [3], 6.9 µM.

As to `COc1cc2c3cc1Oc1c(OC)c(OC)cc4c1[C@@H](Cc1ccc(OCCCNC(=O)c5cncs5)c(c1)Oc1ccc(cc1)C[C@@H]3N(C)CC2)N(C)CC4` [BA #8], the IC50 stood at 7.1 µM in experiment [2] and 6.6 µM in experiment [3].

Consider `COc1cc2c3cc1Oc1c(OC)c(OC)cc4c1[C@@H](Cc1ccc(OCCCNC(=O)c5cncs5)c(c1)Oc1ccc(cc1)C[C@@H]3N(C)CC2)N(C)CC4` [BA #9], for which the results for the IC50 in experiment [2] and in experiment [3] were 8.1 µM and 7.7 µM, respectively.

Consider `COc1cc2c3cc1Oc1c(OC)c(OC)cc4c1[C@@H](Cc1ccc(OCCCNC(=O)c5cncs5)c(c1)Oc1ccc(cc1)C[C@@H]3N(C)CC2)N(C)CC4` [BA #10], for which the concentration for half-maximal inhibition (IC50) in experiment [4] was 2.8 µM; in experiment [5] (Homo sapiens, 48 h) it was 9.4 µM; in experiment [2], 3.4 µM; in experiment [3], 3.7 µM.

With `COc1cc2c3cc1Oc1c(OC)c(OC)cc4c1[C@@H](Cc1ccc(OCCCNC(=O)c5cncs5)c(c1)Oc1ccc(cc1)C[C@@H]3N(C)CC2)N(C)CC4` [BA #11], the IC50 in experiment [2] was 8.3 µM; in experiment [3], 12.3 µM.

With `COc1cc2c3cc1Oc1c(OC)c(OC)cc4c1[C@@H](Cc1ccc(OCCCNC(=O)c5cncs5)c(c1)Oc1ccc(cc1)C[C@@H]3N(C)CC2)N(C)CC4` [BA #12], the IC50 in experiment [5] (48 hours) worked out at 9.2 µM; in experiment [2] it was 3.3 µM; in experiment [3], 5.6 µM.

In the case of `COc1cc2c3cc1Oc1c(OC)c(OC)cc4c1[C@@H](Cc1ccc(OCCCNC(=O)c5cncs5)c(c1)Oc1ccc(cc1)C[C@@H]3N(C)CC2)N(C)CC4` [BA #13], the IC50 in experiment [2] is 8.2 µM; in experiment [3], 13.6 µM.

For the compound `COc1cc2c3cc1Oc1c(OC)c(OC)cc4c1[C@@H](Cc1ccc(O)c(c1)Oc1ccc(cc1)C[C@@H]3N(C)CC2)N(C)CC4` [Berbamine], the IC50 was more than 20 µM with cancer cell lines; 8.9 µM in experiment [1] (Homo sapiens, K562/Adr, 48 h); 19.6 µM in experiment [4]; 24 µM in experiment [5] (Homo sapiens, 48 h); more than 20 µM in experiment [2] (Homo sapiens); more than 20 µM in experiment [3] (Homo sapiens, DU-145, 48 h).

Take `O=C1c2ccccc2C(=O)N1CCCOc1ccccc1` [Phthaloyl derivative, reference compound]: the IC50 in experiment [2] (Homo sapiens) was more than 20 µM; in experiment [3] (Homo sapiens, DU-145, 48 h) it was more than 20 µM.
